Data as given in publication PMC10046946, “Novel Phthalic-Based Anticancer Tyrosine Kinase Inhibitors: Design, Synthesis and Biological Activity” (Current Issues in Molecular Biology, 2023).

How the values were obtained:
A549 (lung carcinoma) = test: MTT cell proliferation assay, A549; assay type: cell-based; conditions: Homo sapiens, A549, 72 h of exposition, read-out: Anti-proliferative activity IC50, A549
Procedure: (§1) Tests to determine the effects of the synthesized compounds on cell viability and the half-maximal inhibitory concentration (IC50) were performed using the MTT assay, as described in our prior work.
(§2) The target compounds 5, 6, 8–12, 14, 15, 17–22 and 24–26 were tested for antiproliferative activity against six cancer cell lines: K562 (chronic myelogenous leukemia), HL-60 (promyelocytic leukemia), MCF-7 (breast adenocarcinoma), HepG2 (human liver cancer), A549 (lung carcinoma) and OKP-GS (renal cell carcinoma). The RPMI 1788 cells (B lymphocyte, human) were used as a control to evaluate the system toxicity of the studied compounds to normal cells. Sorafenib, nilotinib and lapatinib were utilized as reference standards for comparison.

[1] = tested on: MCF-7 (breast adenocarcinoma); test: MTT cell proliferation assay, MCF-7; assay type: cell-based; conditions: Homo sapiens, MCF7, MCF-7, 72 h of exposition, read-out: Anti-proliferative activity IC50, MCF-7
Procedure: as §1, §2

[2] = tested on: K562 (chronic myelogenous leukemia); test: MTT cell proliferation assay, K562; assay type: cell-based; conditions: Homo sapiens, K562, 72 h of exposition, read-out: Anti-proliferative activity IC50, K562
Procedure: as §1, §2

K562 cells [3] = test: Cell cycle analysis (propidium iodide, flow cytometry); assay type: cell-based; conditions: 48 h
Procedure: Tumor cells were seeded on a 6-well plate at a density of 400,000 per well for K562. Test compounds 5, 14 and 15 were added at concentrations of 1, 5 and 10 μM in duplicate for 48 h. The methodology and analysis of the obtained data were performed as described in our prior work.
As shown above, compounds 5, 14 and 15 had significant antiproliferative activities, which is why their influences on the cell cycle and apoptosis level were determined, with the aim of understanding whether these effects are cytostatic or cytotoxic. In the cell cycle experiments, K562 cells were used. […] For the determination of changes in the distribution of cells in the phases of the cell cycle, the widely employed method of staining the cells with propidium iodide was used.

[4] = tested on: RPMI 1788 cells (B lymphocyte, human); test: MTT cell proliferation assay, normal RPMI 1788 cells; assay type: cell-based; conditions: normal human lymphoblastoid cells RPMI 1788, 72 h of exposition, read-out: Anti-proliferative activity IC50, RPMI 1788
Procedure: as §1, §2

[5] = tested on: HepG2 (human liver cancer); test: MTT cell proliferation assay, HepG2; assay type: cell-based; conditions: Homo sapiens, HepG2, 72 h, HepG2, 72 h of exposition, read-out: Anti-proliferative activity IC50, HepG2
Procedure: as §1, §2

[6] = tested on: OKP-GS (renal cell carcinoma); test: MTT cell proliferation assay, OKP-GS; assay type: cell-based; conditions: 72 h of exposition, read-out: Anti-proliferative activity IC50, OKP-GS
Procedure: as §1, §2

K562 cell line = test: ROS determination (DCFH-DA, flow cytometry); assay type: cell-based; conditions: 48 h
Procedure: The redox status was assessed using the K562 cell line. […] Then, the cells were washed to remove the 2′,7′-dichlorodihydrofluorescein diacetate by centrifugation at 1000 rpm for 5 min. The measurements were conducted using a Cytomics FC500 Beckman Coulter flow cytometer (FL1 channel for DCF).

[7] = tested on: HL-60 (promyelocytic leukemia); test: MTT cell proliferation assay, HL-60; assay type: cell-based; conditions: Homo sapiens, HL-60, 72 h of exposition, read-out: Anti-proliferative activity IC50, HL-60
Procedure: as §1, §2

K562 cells [8] = test: Annexin V-FITC/PI apoptosis assay; assay type: cell-based; conditions: 48 h
Procedure: K562 tumor cells were plated on a 6-well plate at a density of 400,000 per well. Test compounds 5, 14 and 15 were added at concentrations of 1, 5 and 10 μM in duplicate for 48 h. The methodology and analysis of the obtained data were performed as described in our prior work.
The effects of compounds 5, 14 and 15 on cell apoptosis were examined using the Annexin V-FITC Kit (Beckman Coulter, Brea, CA, USA) according to the protocols provided. The Annexin V-FITC Kit is an apoptosis detection kit based on the binding properties of annexin V to phosphatidylserine (PS) and on the DNA intercalating capability of propidium iodide (PI). K562 cells were treated with compound 5, 14 and 15 at 1, 5 and 10 μM for 48 h, after which annexin V/PI binding was measured by flow cytometry.

[9] = biological target: T1, IGF1R (insulin-like growth factor 1 receptor) (Homo sapiens, UniProt P08069); test: ADP-Glo kinase assay, IGF1R; assay type: biochemical
T1 construct: purchased Promega
Procedure: (§3) The ADP-Glo kinase assay (Promega, Madison, WI, USA) was used to screen compounds 5, 8–10, 14, 17, 19 and 24 for the tyrosine kinase (Kinase Selectivity Profiling System TK-1, Promega, Madison, WI, USA) and serine/threonine kinase (Kinase Selectivity Profiling System Other/CK-1, Promega, Madison, WI, USA) inhibition effects according to the manufacturer’s technical manual. The luminescence data were analyzed as described in our prior work.
(§4) The selectivity of the potential kinase inhibitor against a specific protein kinase or a specific family of kinases was investigated using the Kinase Selectivity Profiling System TK-1, Other/CK-1 and ADP-Glo™ Kinase assay kit (Promega, Madison, WI, USA).

InsR (insulin receptor) = biological target: T2, InsR (insulin receptor) (Homo sapiens, UniProt P06213); test: ADP-Glo kinase assay, InsR; assay type: biochemical
T2 construct: purchased Promega
Procedure: as §3, §4

KDR (VEGFR-2) = biological target: T3, KDR (VEGFR-2) (Homo sapiens, UniProt P35968); test: ADP-Glo kinase assay, KDR; assay type: biochemical
T3 construct: purchased Promega

HER2 = biological target: T4, HER2 (Homo sapiens, UniProt P04626); test: ADP-Glo kinase assay, HER2; assay type: biochemical
T4 construct: purchased Promega
Procedure: as §3, §4

PDGFRβ = biological target: T5, PDGFRβ (Homo sapiens, UniProt P09619); test: ADP-Glo kinase assay, PDGFRβ; assay type: biochemical
T5 construct: purchased Promega
Procedure: as §3, §4

EGFR = biological target: T6, EGFR (Homo sapiens, UniProt P00533); test: ADP-Glo kinase assay, EGFR; assay type: biochemical
T6 construct: purchased Promega

PDGFRα = biological target: T7, PDGFRα (Homo sapiens, UniProt P16234); test: ADP-Glo kinase assay, PDGFRα; assay type: biochemical
T7 construct: purchased Promega
Procedure: as §3, §4

HER4 = biological target: T8, HER4 (Homo sapiens, UniProt Q15303); test: ADP-Glo kinase assay, HER4; assay type: biochemical
T8 construct: purchased Promega
Procedure: as §3, §4

Aurora A = biological target: T9, Aurora A (Homo sapiens, UniProt O14965); test: ADP-Glo kinase assay, Aurora A; assay type: biochemical
T9 construct: purchased Promega
T9 sequence (O14965 1-403): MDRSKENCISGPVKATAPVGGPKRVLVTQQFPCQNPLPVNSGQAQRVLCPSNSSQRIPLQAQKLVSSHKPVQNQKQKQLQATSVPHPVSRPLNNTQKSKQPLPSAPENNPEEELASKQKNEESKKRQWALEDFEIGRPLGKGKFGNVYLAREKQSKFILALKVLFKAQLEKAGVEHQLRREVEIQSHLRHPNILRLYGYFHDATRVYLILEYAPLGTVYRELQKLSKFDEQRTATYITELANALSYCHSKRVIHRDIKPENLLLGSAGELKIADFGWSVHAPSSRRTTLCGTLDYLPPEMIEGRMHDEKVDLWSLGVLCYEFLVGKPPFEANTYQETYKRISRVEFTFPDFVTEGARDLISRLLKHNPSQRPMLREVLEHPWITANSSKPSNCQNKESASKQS
Procedure: as §3, §4

Aurora B = biological target: T10, Aurora B (Homo sapiens, UniProt Q96GD4); test: ADP-Glo kinase assay, Aurora B; assay type: biochemical
T10 construct: purchased Promega
Procedure: as §3, §4

T7 sequence (P16234 24-1089): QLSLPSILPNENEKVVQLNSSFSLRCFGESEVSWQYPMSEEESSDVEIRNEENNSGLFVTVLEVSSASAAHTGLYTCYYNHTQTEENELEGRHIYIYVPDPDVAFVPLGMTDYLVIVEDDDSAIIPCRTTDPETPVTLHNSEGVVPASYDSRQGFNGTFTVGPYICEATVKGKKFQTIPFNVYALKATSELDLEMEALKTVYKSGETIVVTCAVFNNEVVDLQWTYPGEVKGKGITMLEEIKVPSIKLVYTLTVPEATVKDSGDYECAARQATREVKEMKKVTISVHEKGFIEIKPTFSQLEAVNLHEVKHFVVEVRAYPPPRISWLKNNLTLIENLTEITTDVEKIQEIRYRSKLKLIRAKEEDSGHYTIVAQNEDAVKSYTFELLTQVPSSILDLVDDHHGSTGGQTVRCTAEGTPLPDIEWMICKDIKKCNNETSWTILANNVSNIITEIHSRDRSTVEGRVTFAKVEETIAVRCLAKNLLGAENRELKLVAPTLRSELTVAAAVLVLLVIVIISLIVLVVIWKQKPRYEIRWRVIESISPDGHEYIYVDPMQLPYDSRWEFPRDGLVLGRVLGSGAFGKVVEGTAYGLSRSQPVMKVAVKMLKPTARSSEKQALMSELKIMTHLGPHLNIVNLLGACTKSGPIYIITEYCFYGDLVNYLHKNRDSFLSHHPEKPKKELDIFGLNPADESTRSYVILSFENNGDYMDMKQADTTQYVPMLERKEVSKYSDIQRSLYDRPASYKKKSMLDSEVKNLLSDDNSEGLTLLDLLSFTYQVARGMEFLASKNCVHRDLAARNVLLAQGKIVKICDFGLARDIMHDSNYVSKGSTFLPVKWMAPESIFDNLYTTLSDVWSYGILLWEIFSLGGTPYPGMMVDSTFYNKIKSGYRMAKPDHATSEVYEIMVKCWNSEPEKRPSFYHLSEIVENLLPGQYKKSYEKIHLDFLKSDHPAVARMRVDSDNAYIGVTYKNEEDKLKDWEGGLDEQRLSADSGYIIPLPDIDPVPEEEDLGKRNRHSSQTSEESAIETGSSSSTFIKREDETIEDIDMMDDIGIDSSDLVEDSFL
T5 sequence (P09619 33-1106): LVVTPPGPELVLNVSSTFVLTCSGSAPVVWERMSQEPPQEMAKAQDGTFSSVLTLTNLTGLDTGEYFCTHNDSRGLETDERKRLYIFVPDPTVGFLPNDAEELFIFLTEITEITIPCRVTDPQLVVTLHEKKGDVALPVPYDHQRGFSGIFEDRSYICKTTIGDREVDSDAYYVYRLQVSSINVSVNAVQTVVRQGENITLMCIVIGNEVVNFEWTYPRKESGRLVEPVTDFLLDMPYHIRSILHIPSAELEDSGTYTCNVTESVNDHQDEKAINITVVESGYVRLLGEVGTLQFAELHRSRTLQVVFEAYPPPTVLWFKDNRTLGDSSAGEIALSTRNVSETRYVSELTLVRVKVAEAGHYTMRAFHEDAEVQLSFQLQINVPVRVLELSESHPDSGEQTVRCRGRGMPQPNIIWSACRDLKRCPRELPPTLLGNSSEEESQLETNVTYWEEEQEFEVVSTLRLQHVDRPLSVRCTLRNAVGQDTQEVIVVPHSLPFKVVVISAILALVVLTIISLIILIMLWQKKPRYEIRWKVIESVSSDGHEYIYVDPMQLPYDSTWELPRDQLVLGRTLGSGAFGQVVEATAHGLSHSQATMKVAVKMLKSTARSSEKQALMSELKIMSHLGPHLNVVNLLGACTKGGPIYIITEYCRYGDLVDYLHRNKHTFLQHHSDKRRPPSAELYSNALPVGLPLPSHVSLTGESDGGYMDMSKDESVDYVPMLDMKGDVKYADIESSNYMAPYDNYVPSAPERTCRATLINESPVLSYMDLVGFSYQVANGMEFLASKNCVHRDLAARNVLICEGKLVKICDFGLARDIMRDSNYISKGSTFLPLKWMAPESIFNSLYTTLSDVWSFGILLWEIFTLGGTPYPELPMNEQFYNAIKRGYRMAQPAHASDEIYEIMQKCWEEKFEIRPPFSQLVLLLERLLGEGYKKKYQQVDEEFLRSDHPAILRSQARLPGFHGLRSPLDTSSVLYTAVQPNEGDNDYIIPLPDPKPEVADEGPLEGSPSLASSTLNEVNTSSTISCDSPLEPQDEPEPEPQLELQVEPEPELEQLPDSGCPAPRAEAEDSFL
T10 sequence (Q96GD4 whole entry): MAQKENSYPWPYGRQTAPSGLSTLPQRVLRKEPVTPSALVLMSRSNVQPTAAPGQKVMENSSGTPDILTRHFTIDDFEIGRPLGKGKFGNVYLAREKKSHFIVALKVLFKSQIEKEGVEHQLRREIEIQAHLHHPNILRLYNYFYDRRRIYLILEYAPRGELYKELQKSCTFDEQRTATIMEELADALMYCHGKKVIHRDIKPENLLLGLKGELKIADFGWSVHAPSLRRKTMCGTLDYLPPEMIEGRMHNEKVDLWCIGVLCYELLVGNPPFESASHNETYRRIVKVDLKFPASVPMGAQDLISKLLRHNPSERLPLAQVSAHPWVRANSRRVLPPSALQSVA
T2 sequence (P06213 28-1382): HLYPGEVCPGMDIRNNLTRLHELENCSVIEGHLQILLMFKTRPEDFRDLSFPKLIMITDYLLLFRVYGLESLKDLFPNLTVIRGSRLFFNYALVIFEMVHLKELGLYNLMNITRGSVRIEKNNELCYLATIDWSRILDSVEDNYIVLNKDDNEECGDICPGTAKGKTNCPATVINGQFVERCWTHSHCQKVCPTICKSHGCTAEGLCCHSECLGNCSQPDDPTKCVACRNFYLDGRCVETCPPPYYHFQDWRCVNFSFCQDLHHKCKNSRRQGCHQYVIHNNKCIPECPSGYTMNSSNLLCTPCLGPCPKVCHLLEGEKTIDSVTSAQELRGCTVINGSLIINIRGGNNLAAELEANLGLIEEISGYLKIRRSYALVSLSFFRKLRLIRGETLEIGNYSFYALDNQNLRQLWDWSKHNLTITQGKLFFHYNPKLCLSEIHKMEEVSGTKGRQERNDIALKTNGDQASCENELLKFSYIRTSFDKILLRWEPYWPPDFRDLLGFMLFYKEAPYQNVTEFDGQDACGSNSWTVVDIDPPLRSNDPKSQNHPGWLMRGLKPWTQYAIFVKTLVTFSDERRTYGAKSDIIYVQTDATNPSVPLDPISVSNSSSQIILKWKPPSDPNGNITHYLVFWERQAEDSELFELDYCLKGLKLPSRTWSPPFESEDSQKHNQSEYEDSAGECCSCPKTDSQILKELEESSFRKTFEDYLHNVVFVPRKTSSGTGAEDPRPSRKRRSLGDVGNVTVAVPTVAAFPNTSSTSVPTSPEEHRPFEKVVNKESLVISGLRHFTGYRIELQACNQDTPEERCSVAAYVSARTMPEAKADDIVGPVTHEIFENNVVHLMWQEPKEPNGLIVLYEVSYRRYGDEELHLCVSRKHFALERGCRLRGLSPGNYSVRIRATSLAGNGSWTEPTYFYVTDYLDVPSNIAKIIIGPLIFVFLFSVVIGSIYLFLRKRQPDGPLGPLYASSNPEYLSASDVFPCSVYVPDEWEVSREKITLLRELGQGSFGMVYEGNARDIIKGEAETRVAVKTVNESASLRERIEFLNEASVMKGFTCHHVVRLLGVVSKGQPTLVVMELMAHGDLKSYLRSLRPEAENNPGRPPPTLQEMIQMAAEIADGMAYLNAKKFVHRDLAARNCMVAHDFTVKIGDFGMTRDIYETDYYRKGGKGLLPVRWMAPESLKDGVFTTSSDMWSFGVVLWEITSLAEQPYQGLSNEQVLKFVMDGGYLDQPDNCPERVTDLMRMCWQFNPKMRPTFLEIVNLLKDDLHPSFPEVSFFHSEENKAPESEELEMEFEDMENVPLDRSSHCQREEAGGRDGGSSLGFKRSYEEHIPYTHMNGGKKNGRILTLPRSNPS
T8 sequence (Q15303 26-1308): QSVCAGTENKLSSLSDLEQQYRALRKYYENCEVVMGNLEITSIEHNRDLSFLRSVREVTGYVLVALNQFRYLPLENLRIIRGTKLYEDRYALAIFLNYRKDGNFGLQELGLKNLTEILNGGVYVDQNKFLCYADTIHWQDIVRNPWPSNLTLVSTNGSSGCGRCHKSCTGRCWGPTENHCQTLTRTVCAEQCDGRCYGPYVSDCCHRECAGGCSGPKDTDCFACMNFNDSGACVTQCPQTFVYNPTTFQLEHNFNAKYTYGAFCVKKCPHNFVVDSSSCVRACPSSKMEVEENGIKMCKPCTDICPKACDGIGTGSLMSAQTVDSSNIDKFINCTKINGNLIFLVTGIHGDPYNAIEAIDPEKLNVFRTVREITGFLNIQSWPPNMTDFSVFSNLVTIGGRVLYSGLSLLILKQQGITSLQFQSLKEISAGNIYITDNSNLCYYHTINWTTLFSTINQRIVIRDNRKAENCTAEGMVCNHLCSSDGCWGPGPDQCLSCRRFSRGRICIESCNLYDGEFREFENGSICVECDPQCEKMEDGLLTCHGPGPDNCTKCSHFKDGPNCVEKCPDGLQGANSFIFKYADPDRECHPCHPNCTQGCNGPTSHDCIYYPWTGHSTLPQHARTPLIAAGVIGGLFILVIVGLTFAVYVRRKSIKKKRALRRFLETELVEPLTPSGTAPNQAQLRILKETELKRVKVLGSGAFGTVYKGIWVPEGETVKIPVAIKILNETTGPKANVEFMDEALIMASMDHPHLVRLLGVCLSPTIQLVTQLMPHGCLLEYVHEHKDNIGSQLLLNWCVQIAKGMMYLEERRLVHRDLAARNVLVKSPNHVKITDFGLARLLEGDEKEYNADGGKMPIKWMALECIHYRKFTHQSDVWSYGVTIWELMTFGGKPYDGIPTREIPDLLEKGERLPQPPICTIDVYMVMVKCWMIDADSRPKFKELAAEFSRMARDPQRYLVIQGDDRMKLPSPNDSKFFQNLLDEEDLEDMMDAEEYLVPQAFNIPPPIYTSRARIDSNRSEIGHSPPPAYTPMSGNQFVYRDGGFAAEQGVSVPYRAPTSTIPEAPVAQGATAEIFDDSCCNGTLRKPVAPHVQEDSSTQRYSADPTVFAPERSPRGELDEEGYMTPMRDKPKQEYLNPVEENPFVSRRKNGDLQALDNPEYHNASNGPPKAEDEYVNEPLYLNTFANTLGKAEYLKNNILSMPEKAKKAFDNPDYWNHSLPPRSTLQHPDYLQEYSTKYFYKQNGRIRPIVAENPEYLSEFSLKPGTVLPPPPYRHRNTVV

Cc1cn(-c2cc(NC(=O)c3cccc(C(=O)N4CCN(C(=O)c5cccc(F)c5)CC4)c3)cc(C(F)(F)F)c2)cn1 [Compound 15, 3-(4-(3-Fluorobenzoyl)piperazine-1-carbonyl)-N-(3-(4-methyl-1H-imidazol-1-yl)-5-(trifluoromethyl)phenyl)-benzamide]
IC50 (A549 (lung carcinoma)): > 50 µM | IC50 [1]: 27.38 ± 0.26 µM | IC50 [2]: 10.5 ± 2.54 µM | melting point: 130 to 135 °C | Apoptosis, % (cell cycle analysis) (K562 cells [3]; K562, 1 µM): 17.90% | G1, % (K562 cells [3]; K562, 1 µM): 30.15% | G2/M, % (K562 cells [3]; K562, 1 µM): 48.54% | S, % (K562 cells [3]; K562, 1 µM): 21.31% | Apoptosis, % (cell cycle analysis) (K562 cells [3]; K562, 5 µM): 20.54% | G1, % (K562 cells [3]; K562, 5 µM): 34.76% | G2/M, % (K562 cells [3]; K562, 5 µM): 53.65% | S, % (K562 cells [3]; K562, 5 µM): 11.59% | Apoptosis, % (cell cycle analysis) (K562 cells [3]; K562, 10 µM): 32.72% | G1, % (K562 cells [3]; K562, 10 µM): 28.85% | G2/M, % (K562 cells [3]; K562, 10 µM): 62.99% | S, % (K562 cells [3]; K562, 10 µM): 8.16% | IC50 [4]: 29.4 ± 1.79 µM | IC50 [5]: 45.8 ± 1.76 µM | IC50 [6]: > 50 µM | ROS Level, % of Control (K562 cell line; K562, 5 µM): 92.89 % of Control | ROS Level, % of Control (K562 cell line; K562, 10 µM): 87.87 % of Control | ROS Level, % of Control (K562 cell line; K562, 20 µM): 94.07 % of Control | IC50 [7]: 34.8 ± 4.7 µM | normal live cells (living cells) (K562 cells [8]; K562, 1 µM): 74.91% | normal live cells (living cells) (K562 cells [8]; K562, 5 µM): 68.41% | normal live cells (living cells) (K562 cells [8]; K562, 10 µM): 60.97%

COc1ccc(C(=O)N2CCN(C(=O)c3ccc(C(=O)Nc4cccc(C(F)(F)F)c4)cc3)CC2)cc1 [Compound 19, 4-(4-(4-Methoxybenzoyl)piperazine-1-carbonyl)-N-(3-(trifluoromethyl)phenyl)benzamide]
inhibition at 10 µM [9]: 0% | IC50 (A549 (lung carcinoma)): > 50 µM | inhibition at 10 µM (InsR (insulin receptor)): 17% | inhibition at 10 µM (KDR (VEGFR-2)): 16% | inhibition at 10 µM (HER2): 39% | IC50 [1]: > 50 µM | IC50 [2]: > 50 µM | inhibition at 10 µM (PDGFRβ): 20% | melting point: 202 to 205 °C | inhibition at 10 µM (EGFR): 4% | IC50 [4]: > 50 µM | IC50 [5]: > 50 µM | IC50 [6]: > 50 µM | inhibition at 10 µM (PDGFRα): 19% | IC50 [7]: > 50 µM | inhibition at 10 µM (HER4): 2%

Cc1cn(-c2cc(NC(=O)c3ccc(C(=O)N4CCN(C(=O)c5ccccc5F)CC4)cc3)cc(C(F)(F)F)c2)cn1 [Compound 26, 4-(4-(2-fluorobenzoyl)piperazine-1-carbonyl)-N-(3-(4-methyl-1H-imidazol-1-yl)-5-(trifluoromethyl)phenyl)-benzamide]
IC50 (A549 (lung carcinoma)): > 50 µM | IC50 [1]: 48.8 ± 1.17 µM | IC50 [2]: 18.5 ± 0.73 µM | melting point: 142 to 145 °C | IC50 [4]: 23.97 ± 0.03 µM | IC50 [5]: 44.3 ± 4.79 µM | IC50 [6]: > 50 µM | IC50 [7]: 26.4 ± 1.73 µM

Cc1cn(-c2cc(NC(=O)c3ccc(C(=O)N4CCN(C(=O)c5cccc(F)c5)CC4)cc3)cc(C(F)(F)F)c2)cn1 [Compound 27, 4-(4-(3-fluorobenzoyl)piperazine-1-carbonyl)-N-(3-(4-methyl-1H-imidazol-1-yl)-5-(trifluoromethyl)phenyl)-benzamide]
IC50 (A549 (lung carcinoma)): > 50 µM | IC50 [1]: 49.4 ± 0.67 µM | IC50 [2]: 22.2 ± 2.12 µM | melting point: 110 to 113 °C | IC50 [4]: 24.08 ± 0.07 µM | IC50 [5]: 38.6 ± 1.11 µM | IC50 [6]: > 50 µM | IC50 [7]: 26 ± 4.15 µM

CNC(=O)c1cc(Oc2ccc(NC(=O)Nc3ccc(Cl)c(C(F)(F)F)c3)cc2)ccn1 [Sorafenib, reference compound]
IC50 (A549 (lung carcinoma)): 12.5 ± 1.64 µM | IC50 [1]: 8.62 ± 2.24 µM | IC50 [2]: 2.44 ± 0.21 µM | inhibition at 10 µM (PDGFRβ): 100% | Apoptosis, % (cell cycle analysis) (K562 cells [3]; K562, 1 µM): 22.60% | G1, % (K562 cells [3]; K562, 1 µM): 36.50% | S, % (K562 cells [3]; K562, 1 µM): 7.72% | Apoptosis, % (cell cycle analysis) (K562 cells [3]; K562, 5 µM): 44.20% | G1, % (K562 cells [3]; K562, 5 µM): 33.87% | S, % (K562 cells [3]; K562, 5 µM): 30.14% | IC50 [4]: 3.48 ± 0.39 µM | IC50 [5]: 5.01 ± 0.14 µM | IC50 [6]: 7.17 ± 0.5 µM | ROS Level, % of Control (K562 cell line; K562, 5 µM): 69.20 % of Control | ROS Level, % of Control (K562 cell line; K562, 10 µM): 79.03 % of Control | ROS Level, % of Control (K562 cell line; K562, 20 µM): 71.59 % of Control | inhibition at 10 µM (PDGFRα): 100% | IC50 [7]: 3.37 ± 0.42 µM | normal live cells (living cells) (K562 cells [8]; K562, 1 µM): 84.11% | early apoptotic cells (K562 cells [8]; K562, 5 µM): 36.2% | late apoptotic cells (K562 cells [8]; K562, 5 µM): 19.57% | normal live cells (living cells) (K562 cells [8]; K562, 5 µM): 42.32% | necrotic cells (K562 cells [8]; K562, 10 µM): 5.73% | normal live cells (living cells) (K562 cells [8]; K562, 10 µM): 26.41%

CCN(CC)CCNC(=O)c1c(C)[nH]c(/C=C2\C(=O)Nc3ccc(F)cc32)c1C [Sunit., sunitinib, reference compound]
inhibition at 10 µM (Aurora A): 68% | inhibition at 10 µM (Aurora B): 90%
